Common to all, as to format: physicochemical
Series [1] can be described thus: Accelerated stability tests of crystalline Compound A Form 1 (Table 5). Particulars: 7 days; for Purity after storage: HPLC. On the procedure:
(§1) XRPD analysis was carried out on a PANalytical X'pert Pro with PIXcel detector (128 channels), scanning the samples between 3 and 35° […]. The material was gently ground (where required) to release any agglomerates and loaded onto a multi-well plate with Kapton or Mylar polymer film to support the sample. The multi-well plate was then placed into the diffractometer and analyzed using Cu K radiation (α1 λ=1.54060 Å; α2 λ=1.54443 Å; β λ=1.39225 Å; α1:α2 ratio=0.5) running in transmission mode (step size 0.0130° 2θ, step time 18.87 s) using 40 kV/40 mA generator settings. Data were visualized and images generated using the HighScore Plus 4.7 desktop application (PANalytical, 2017).
Crystalline Compound A (Form 1) was not changed after storage at room temperature for 7 days, storage at 40 °C/75% RH for 7 days, or storage at 80 °C for 7 days. Purity was determined by HPLC analysis.

A short description of series [2]: Long-term stability tests of crystalline Compound A Form 1 (Table 6). Conditions: for Purity after storage: HPLC. The protocol: as §1
Crystalline Compound A (Form 1) was not changed after storage at 25 °C/60% RH for 36 months or storage at 40 °C/75% RH for 6 months. Purity was determined by HPLC analysis.

Series [3] is described as follows: Karl Fischer (KF) coulometric titration. Conditions: in duplicate. The protocol:
Water content of crystalline Compound A was determined using KF Coulometric Titration by either direct addition or liquid extraction.
10-20 mg of crystalline Compound A was weighed into a vial. The solid was then manually introduced into the titration cell of a Mettler Toledo C30 Compact Titrator. The vial was back-weighed after the addition of the solid and the weight of the added solid entered on the instrument. Titration was initiated once the sample had fully dissolved in the cell. The water content was calculated automatically by the instrument as a percentage and the data printed. The analysis was carried out in duplicate.
10-20 mg of crystalline Compound A was weighed into a vial, 10-15 mL of the Coulomat was extracted from the cell of a Mettler Toledo C30 Compact Titrator and added to the vial containing the sample. The solid was dissolved by shaking manually or using ultrasonic bath. When complete dissolution was achieved, the solution was injected back into the cell titrator and the weight of the sample added was entered on the instrument. The water content was calculated automatically by the instrument as a percentage and the data printed. The analysis was carried out in duplicate.

Series [4] is described as follows: Conversion of Compound A Form 4 on standing in humid conditions. Particulars: standing at 25 °C and 40 °C and at >30% RH.
The nature of series [5]: Variable humidity X-ray powder diffraction (VH-XRPD). Conditions: desorption phase, 90% RH to 20% RH; starting from Form 2. On the procedure:
A known mass of 5-(3,6-dibromo-9H-carbazol-9-yl)-N,N,N-trimethylpentan-1-aminium chloride Form 2 (Compound A Form 2) was analyzed by variable humidity X-ray powder diffraction (VH-XRPD) on a Philips X'Pert Pro Multipurpose diffractometer quipped with a humidity chamber. The samples were scanned between 4 and 35.99° 2θ using Cu K radiation (α1 λ=1.54060 Å; α2=1.54443 Å; β=1.39225 Å; α1:α2 ratio=0.5) running in Bragg-Brentano geometry (step size 0.008° 2θ) using 40 kV/40 mA generator settings. Measurements were performed between 7-90% RH and XRPD scans were collected at each humidity step. The VH-XRPD analysis was conducted an absorption phase between ambient and 90% RH, a desorption phase between 90% RH and 7% RH, and a second absorption phase between 20% and 40% RH.

Setting [6] is: 25 °C/60% RH (closed container), 24 months.

SMILES strings stand for the structures.

Turning to `C[N+](C)(C)CCCCCn1c2ccc(Br)cc2c2cc(Br)ccc21.[Cl-]` [Compound A Form 1, 5-(3,6-dibromo-9H-carbazol-9-yl)-N,N,N-trimethylpentan-1-aminium chloride], the XRPD after storage result in series [1] (40 °C/75% RH (open vial)) is listed as “Unchanged”; in series [1] (80 °C (closed vial)), “Unchanged”; in series [1] (Room Temperature (open vial)), “Unchanged”; in series [2] (25 °C/60% RH (closed container), 3 months) it was “Unchanged”; in series [2] (25 °C/60% RH (closed container), 6 months) it was “Unchanged”; in series [2] (25 °C/60% RH (closed container), 12 months), “Unchanged”. The XRPD after storage entry in series [2] (setting [6]) was “Unchanged”; in series [2] (25 °C/60% RH (closed container), 36 months) it was “Unchanged”; in series [2] (40 °C/75% RH (closed container), 1 month), “Unchanged”; in series [2] (40 °C/75% RH (closed container), 3 months), “Unchanged”; in series [2] (40 °C/75% RH (closed container), 6 months), “Unchanged”. Further, the Purity after storage is on record as 99.93% in series [1] (40 °C/75% RH (open vial)); 99.93% in series [1] (80 °C (closed vial)); 99.93% in series [1] (Room Temperature (open vial)); 99.7% in series [2] (25 °C/60% RH (closed container), 3 months, 131040 min); 99.7% in series [2] (25 °C/60% RH (closed container), 6 months, 263520 min); 99.7% in series [2] (25 °C/60% RH (closed container), 12 months, 525600 min). The Purity after storage in series [2] (setting [6]) is on record as 99.7%; in series [2] (25 °C/60% RH (closed container), 36 months, 1.5768e+06 min), 99.7%; in series [2] (40 °C/75% RH (closed container), 1 month, 43200 min), 99.7%; in series [2] (40 °C/75% RH (closed container), 3 months, 131040 min) it was 99.7%; in series [2] (40 °C/75% RH (closed container), 6 months, 263520 min) it was 99.8%. Further, the Change after storage result in series [1] (40 °C/75% RH) was “not changed”; in series [1] (80 °C) it was “not changed”; in series [1] (room temperature), “not changed”; in series [2] (25 °C/60% RH, 36 months), “not changed”; in series [2] (40 °C/75% RH, 6 months), “not changed”. In series [3] (listed as Form 1), this compound yielded a Water content of 4.38% w/w %.

With `C[N+](C)(C)CCCCCn1c2ccc(Br)cc2c2cc(Br)ccc21.[Cl-]` [Compound A Form 4, 5-(3,6-dibromo-9H-carbazol-9-yl)-N,N,N-trimethylpentan-1-aminium chloride], the Water content in series [3] (listed as Form 4) was 1% w/w %. In series [4], the “Conversion of crystalline form” value is recorded as “converted to crystalline Form 1 of Compound A”.

For `C[N+](C)(C)CCCCCn1c2ccc(Br)cc2c2cc(Br)ccc21.[Cl-]` [Compound A Form 2, 5-(3,6-dibromo-9H-carbazol-9-yl)-N,N,N-trimethylpentan-1-aminium chloride], the Crystalline form observed result in series [5] is “Crystalline Form 1 of Compound A was observed during the desorption phase between 90% RH and 20% RH”.

In series [3] (listed as Form 3), `C[N+](C)(C)CCCCCn1c2ccc(Br)cc2c2cc(Br)ccc21.[Cl-]` [Compound A Form 3, 5-(3,6-dibromo-9H-carbazol-9-yl)-N,N,N-trimethylpentan-1-aminium chloride] had a Water content of 5.3% w/w %.

Source of the values: patent publication US20260365622A1, “CRYSTALLINE CARBAZOLE DERIVATIVE AND METHODS OF MAKING THEREOF” (Raziel Therapeutics Ltd., priority 2022, published 2026).
